Active and inactive are the calls of the source.

Assay [1] deals with Opioid receptors; mu & delta (Homo sapiens, UniProt P41143+P35372). In words: agonists of MOR-DOR heterodimerization, dose response, cell-based, luminescence (AID 588407). The assay is classed as functional.
Assay [2] concerns the target Delta-type opioid receptor (Homo sapiens, UniProt P41143). The assay is described as follows: Counterscreen for agonists of heterodimerization of the mu 1 (OPRM1) and delta 1 (OPRD1) opioid receptors: Luminescence-based cell-based high throughput dose response assay to identify agonists of OPRD1 homodimerization. [Related pubchem assays (depositor defined):AID504326, AID504355, AID504692, AID504904, AID504905]. Type of assay: functional. A general note: Counterscreens check selectivity or assay interference.

The next assay concerns the target Mu-type opioid receptor (Homo sapiens, UniProt P35372). In words: Counterscreen for agonists of heterodimerization of the mu 1 (OPRM1) and delta 1 (OPRD1) opioid receptors: Luminescence-based cell-based high throughput dose response assay to identify agonists of OPRM1 homodimerization. The assay is classed as functional.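 Also: U2OS cells expressing OPRM1 and beta-arrestin as split beta-galactosidase partners.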
Assay [3] deals with T1, Short transient receptor potential channel 4 (Mus musculus, UniProt Q9QUQ5).
T1 sequence (Q9QUQ5 whole entry): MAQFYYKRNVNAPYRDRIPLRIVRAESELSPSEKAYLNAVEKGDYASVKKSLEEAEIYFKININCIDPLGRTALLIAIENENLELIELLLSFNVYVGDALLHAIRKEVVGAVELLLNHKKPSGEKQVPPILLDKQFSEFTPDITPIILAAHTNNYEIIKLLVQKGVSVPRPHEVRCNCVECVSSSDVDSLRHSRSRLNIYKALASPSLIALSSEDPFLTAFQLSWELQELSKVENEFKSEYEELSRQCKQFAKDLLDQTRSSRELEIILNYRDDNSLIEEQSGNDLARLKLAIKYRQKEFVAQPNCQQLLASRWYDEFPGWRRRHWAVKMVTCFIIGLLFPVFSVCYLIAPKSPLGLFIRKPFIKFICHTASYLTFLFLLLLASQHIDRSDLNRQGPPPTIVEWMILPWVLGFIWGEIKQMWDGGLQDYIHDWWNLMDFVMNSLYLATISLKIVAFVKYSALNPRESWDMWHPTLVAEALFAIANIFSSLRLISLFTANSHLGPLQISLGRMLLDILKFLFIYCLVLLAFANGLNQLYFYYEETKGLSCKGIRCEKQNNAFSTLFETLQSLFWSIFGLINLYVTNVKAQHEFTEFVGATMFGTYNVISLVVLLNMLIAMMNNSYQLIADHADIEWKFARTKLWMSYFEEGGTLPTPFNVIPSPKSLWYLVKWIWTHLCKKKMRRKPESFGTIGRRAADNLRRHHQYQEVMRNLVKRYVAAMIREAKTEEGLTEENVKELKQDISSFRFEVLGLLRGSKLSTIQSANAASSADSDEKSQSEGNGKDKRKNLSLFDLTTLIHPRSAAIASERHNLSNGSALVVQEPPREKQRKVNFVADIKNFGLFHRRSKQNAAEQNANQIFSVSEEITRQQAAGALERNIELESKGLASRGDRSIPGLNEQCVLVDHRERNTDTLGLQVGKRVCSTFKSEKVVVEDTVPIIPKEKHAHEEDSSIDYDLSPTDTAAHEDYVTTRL
In words: mouse TRPC4 channel activators, dose response, cell-based, HEK293 TRPC4/mu-opioid, Fluo-4 calcium (AID 434937). Type of assay: functional.

Assay [4] has as its target 5-hydroxytryptamine receptor 5A (Homo sapiens, UniProt P47898). In words: Counterscreen for agonists of OPRM1-OPRD1 heterodimerization: luminescence-based cell-based high throughput dose response assay to identify agonists of 5-hydroxytryptamine (serotonin) 5A receptor (HTR5A). [Related pubchem assays (depositor defined):AID504326, AID504355, AID504692, AID504904, AID504905]. Type of assay: functional.

For another assay, the target named is T2, Hexokinase HKDC1 (Homo sapiens, UniProt Q2TB90).
T2 sequence (Q2TB90 whole entry): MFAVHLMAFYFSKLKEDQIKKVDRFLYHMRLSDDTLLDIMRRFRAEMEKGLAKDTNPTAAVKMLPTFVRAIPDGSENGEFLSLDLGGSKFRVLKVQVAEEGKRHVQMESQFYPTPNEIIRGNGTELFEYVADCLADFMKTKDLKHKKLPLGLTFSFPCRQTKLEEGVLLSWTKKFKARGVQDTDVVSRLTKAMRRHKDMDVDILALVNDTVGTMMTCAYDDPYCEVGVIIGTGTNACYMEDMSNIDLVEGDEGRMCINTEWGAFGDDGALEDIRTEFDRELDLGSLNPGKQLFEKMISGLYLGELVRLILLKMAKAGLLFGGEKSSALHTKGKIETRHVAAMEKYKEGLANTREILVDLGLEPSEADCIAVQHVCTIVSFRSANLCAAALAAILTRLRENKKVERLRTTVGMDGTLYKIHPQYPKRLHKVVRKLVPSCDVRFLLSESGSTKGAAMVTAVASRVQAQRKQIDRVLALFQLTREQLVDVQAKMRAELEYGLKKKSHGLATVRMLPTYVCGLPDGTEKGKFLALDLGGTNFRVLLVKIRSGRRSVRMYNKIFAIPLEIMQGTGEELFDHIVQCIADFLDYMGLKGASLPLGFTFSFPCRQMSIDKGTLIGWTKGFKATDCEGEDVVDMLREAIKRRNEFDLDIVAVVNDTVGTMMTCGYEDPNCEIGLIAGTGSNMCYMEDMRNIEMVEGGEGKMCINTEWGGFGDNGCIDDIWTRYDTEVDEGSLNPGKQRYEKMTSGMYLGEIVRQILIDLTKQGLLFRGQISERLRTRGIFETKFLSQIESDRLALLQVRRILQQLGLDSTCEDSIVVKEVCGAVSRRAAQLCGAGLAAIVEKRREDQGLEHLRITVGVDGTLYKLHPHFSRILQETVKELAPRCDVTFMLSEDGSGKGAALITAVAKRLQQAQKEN
In words: SAR analysis of small molecule inhibitors of hexokinase domain containing I (HKDC1). [Related pubchem assays (depositor defined):AID493160, AID493190]. The assay is classed as functional.

The target of another assay is T3, Hexokinase-1 (Homo sapiens, UniProt P19367).
T3 sequence (P19367 whole entry): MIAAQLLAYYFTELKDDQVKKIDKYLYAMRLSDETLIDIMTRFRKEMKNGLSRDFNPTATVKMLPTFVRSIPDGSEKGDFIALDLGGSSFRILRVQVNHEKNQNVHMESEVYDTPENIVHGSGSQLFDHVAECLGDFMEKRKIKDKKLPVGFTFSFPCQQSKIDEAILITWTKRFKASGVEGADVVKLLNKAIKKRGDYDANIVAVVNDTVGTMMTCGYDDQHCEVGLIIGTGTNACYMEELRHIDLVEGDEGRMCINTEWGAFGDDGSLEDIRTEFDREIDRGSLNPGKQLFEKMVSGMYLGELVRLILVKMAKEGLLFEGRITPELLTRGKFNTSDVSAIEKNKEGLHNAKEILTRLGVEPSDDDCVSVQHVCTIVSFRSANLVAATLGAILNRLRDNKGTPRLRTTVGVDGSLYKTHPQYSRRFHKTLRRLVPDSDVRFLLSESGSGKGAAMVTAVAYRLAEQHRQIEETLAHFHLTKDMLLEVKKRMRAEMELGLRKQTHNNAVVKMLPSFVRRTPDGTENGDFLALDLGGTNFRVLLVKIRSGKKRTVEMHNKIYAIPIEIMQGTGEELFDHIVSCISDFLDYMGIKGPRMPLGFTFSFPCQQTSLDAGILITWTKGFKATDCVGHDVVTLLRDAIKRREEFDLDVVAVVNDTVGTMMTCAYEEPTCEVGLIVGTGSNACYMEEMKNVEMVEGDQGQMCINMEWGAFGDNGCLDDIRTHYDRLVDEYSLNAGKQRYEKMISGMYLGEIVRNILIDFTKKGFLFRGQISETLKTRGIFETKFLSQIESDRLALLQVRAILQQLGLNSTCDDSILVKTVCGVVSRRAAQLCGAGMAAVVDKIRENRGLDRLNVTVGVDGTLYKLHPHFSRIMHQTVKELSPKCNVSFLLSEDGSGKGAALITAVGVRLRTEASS
The assay is described as follows: SAR analysis of small molecule inhibitors of hexokinase domain containing I (HKDC1) in the hexokinase 1 selectivity assay. [Related pubchem assays (depositor defined):AID493160, AID493190]. The assay is classed as functional.

The target in assay [5] is Dual specificity tyrosine-phosphorylation-regulated kinase 1A (Rattus norvegicus, UniProt Q63470). The assay is classed as biochemical, Homo sapiens.
A short description of assay [6]: C. albicans growth with fluconazole, confirmation, fluorescence, retest (AID 2467). Type of assay: functional, cell-based.
Assay [7] has as its target SWI/SNF-related matrix-associated actin-dependent regulator of chromatin subfamily A member 2 (Homo sapiens, UniProt P51531). In words: Luminescence-based cell-based high throughput dose response assay to identify activators of the function of SWI/SNF related, matrix associated, actin dependent regulator of chromatin, subfamily a, member 2 (SMARCA2, BRM). The assay is classed as functional.

A short description of assay [8]: cells. Type of assay: functional, cell-based.
A further assay relates to HEK293. The assay is described as follows: inhibitors of LMP1-driven NF-kB reporter, dose response, cell-based, HEK293, luciferase, cherry-pick (AID 588343). The assay is classed as functional. The settings on record: Homo sapiens.
The nature of assay [9]: cytotoxicity in HEK-293T cells, dose response, cytotoxicity control for TCR NF-kB inhibitor project, luminescence, T-cell screen hits (AID 489026).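 Also: cells exposed to compound about 14 hours before the viability readout.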 Type of assay: functional, cell-based.
The nature of assay [10]: NIH-3T3 fibroblast cytotoxicity, dose response, cytotoxicity control, cell-based, fluorescence, Alamar Blue, secondary assay (AID 2327).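 Also: NIH-3T3 mouse fibroblasts cultured with fluconazole at 8 µg/mL.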 Type of assay: functional. (In general: The colour change of resazurin is a common sign of viable cells or microbes.)
Assay [11] is described as follows: cells. Type of assay: functional, cell-based. This is another data set of the same source.
Assay [12] has as its target Photoreceptor-specific nuclear receptor (Homo sapiens, UniProt Q9Y5X4). Type of assay: functional, cell-based.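 Also: CHO-S cells with Gal4-NCOR and VP16-NR2E3 two-hybrid luciferase reporter.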
The nature of assay [13]: Counterscreen for activators of the function of SWI/SNF related, matrix associated, actin dependent regulator of chromatin, subfamily a, member 2 (SMARCA2, BRM): Luminescence-based cell-based high throughput dose response assay to identify non-selective compounds using the VP16 reporter assay. The assay is classed as functional.
Assay [14] addresses ATP-dependent molecular chaperone HSP82 (Candida albicans (strain WO-1) (Yeast), UniProt C4YTQ8). The assay is described as follows: loss of DOC-induced GRE-beta-galactosidase reporter signal, dose response, Hsp90 inhibitor project, S. cerevisiae, luminescence (AID 2400).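 Also: beta-galactosidase luminescence from glucocorticoid response element reporter as proxy for Hsp90 function; inhibitor potency where signal loss means Hsp90 inhibition.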 Type of assay: functional, cell-based.
For assay [15], the target named is T4, Serine/threonine-protein phosphatase (Candida dubliniensis (strain CD36 / CBS 7987 / NCPF 3949 / NRRLY-17841) (Yeast), UniProt B9W6M3).
T4 sequence (B9W6M3 whole entry): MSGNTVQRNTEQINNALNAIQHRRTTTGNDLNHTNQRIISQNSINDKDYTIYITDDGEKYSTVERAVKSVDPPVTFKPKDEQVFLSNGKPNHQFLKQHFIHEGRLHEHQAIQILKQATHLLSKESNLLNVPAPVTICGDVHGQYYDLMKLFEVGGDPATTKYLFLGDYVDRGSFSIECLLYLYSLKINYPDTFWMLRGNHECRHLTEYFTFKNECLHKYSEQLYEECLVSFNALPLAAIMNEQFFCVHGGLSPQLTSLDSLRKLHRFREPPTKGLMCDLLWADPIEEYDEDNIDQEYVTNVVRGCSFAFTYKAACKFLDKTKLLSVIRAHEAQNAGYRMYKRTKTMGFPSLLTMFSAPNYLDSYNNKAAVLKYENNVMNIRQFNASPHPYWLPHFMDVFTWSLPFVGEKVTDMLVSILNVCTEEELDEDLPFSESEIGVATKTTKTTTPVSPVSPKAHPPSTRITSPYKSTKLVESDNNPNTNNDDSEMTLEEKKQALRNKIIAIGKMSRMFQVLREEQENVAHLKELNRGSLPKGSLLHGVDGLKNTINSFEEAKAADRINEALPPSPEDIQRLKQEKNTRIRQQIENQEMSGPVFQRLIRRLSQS
The assay is described as follows: calcineurin pathway inhibitors in yeast reporter, dose response, S. cerevisiae, CDRE-lacZ, luminescence, secondary (AID 2388).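 Also: yeast reporter cells carrying a calcineurin-responsive lacZ construct stimulated with calcium chloride; luminescent beta-galactosidase reporter signal in whole cells rather than isolated phosphatase activity; potency for inhibition where a drop in reporter signal means calcineurin blockade.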 The assay is classed as functional, cell-based.

Chain of Mu-type opioid receptor (P35372 whole entry): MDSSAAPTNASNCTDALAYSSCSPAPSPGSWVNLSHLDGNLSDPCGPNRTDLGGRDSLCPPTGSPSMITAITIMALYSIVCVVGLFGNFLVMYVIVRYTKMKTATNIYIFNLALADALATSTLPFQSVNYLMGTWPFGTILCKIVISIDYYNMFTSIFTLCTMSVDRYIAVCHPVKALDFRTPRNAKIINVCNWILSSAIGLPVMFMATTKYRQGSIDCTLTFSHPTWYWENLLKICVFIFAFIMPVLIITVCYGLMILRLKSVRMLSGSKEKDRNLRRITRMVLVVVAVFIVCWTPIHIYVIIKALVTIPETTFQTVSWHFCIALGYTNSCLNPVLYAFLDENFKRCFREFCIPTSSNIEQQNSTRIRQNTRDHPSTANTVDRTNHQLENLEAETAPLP
Chain of SWI/SNF-related matrix-associated actin-dependent regulator of chromatin subfamily A member 2 (P51531 whole entry): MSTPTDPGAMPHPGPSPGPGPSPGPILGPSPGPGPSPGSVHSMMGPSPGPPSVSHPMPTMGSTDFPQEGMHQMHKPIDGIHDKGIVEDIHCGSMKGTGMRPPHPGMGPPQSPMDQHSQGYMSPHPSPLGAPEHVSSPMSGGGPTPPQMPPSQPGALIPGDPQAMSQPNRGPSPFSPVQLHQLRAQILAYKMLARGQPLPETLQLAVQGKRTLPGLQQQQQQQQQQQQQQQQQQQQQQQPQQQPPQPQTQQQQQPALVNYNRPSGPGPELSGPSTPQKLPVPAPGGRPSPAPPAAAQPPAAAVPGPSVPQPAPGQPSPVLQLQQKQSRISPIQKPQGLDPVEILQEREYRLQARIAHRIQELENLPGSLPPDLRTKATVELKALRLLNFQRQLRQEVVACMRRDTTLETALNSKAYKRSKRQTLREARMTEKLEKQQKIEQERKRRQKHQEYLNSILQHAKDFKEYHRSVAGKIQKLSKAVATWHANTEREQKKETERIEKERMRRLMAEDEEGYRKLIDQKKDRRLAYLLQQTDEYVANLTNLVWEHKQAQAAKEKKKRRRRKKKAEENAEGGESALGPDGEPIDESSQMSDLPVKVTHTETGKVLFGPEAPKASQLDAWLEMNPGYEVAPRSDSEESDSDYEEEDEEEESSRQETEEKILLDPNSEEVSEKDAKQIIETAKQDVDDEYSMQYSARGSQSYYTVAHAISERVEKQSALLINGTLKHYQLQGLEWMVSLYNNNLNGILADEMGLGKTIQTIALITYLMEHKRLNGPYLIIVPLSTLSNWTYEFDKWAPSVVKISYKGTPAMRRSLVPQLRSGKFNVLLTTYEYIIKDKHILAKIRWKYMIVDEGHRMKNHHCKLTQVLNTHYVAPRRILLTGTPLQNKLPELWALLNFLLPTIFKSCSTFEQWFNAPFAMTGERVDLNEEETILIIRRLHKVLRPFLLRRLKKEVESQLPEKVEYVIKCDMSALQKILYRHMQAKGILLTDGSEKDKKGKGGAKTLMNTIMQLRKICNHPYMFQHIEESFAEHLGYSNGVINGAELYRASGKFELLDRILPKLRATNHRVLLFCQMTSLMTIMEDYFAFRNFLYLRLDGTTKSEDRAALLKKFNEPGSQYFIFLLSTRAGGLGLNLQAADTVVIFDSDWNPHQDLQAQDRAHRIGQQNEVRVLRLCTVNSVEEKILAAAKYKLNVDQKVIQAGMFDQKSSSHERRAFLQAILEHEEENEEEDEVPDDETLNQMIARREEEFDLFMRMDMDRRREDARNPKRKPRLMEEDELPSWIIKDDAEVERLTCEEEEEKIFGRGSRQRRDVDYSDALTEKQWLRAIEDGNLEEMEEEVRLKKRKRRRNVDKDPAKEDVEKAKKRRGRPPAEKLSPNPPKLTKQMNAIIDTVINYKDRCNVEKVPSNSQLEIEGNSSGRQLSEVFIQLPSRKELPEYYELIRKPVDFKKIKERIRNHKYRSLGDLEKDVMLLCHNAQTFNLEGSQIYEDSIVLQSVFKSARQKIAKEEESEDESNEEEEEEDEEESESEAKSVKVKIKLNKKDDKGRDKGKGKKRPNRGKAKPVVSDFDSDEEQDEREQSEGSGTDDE
Chain of Delta-type opioid receptor (P41143 whole entry): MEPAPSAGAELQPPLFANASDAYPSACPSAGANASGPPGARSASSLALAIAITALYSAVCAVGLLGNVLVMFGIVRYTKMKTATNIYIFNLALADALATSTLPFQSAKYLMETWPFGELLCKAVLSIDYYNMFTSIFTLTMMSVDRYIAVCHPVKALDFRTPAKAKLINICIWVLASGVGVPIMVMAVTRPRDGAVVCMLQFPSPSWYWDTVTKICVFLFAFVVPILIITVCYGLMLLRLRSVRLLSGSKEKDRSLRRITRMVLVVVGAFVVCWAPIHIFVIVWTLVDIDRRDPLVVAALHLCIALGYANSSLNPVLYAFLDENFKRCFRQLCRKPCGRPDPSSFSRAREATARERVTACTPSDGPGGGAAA
Chain of Photoreceptor-specific nuclear receptor (Q9Y5X4 whole entry, the tested form may be a part): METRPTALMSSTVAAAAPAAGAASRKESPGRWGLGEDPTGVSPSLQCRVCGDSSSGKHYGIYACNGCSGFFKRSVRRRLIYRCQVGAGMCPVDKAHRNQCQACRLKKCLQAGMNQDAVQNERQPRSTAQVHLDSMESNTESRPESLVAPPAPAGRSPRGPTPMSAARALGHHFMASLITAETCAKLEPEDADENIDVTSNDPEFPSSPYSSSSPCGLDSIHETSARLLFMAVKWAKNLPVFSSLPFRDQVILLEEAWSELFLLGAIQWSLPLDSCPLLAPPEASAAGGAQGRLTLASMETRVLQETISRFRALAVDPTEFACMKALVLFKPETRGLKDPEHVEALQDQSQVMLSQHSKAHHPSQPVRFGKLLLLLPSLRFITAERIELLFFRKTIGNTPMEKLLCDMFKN
Chain of 5-hydroxytryptamine receptor 5A (P47898 whole entry): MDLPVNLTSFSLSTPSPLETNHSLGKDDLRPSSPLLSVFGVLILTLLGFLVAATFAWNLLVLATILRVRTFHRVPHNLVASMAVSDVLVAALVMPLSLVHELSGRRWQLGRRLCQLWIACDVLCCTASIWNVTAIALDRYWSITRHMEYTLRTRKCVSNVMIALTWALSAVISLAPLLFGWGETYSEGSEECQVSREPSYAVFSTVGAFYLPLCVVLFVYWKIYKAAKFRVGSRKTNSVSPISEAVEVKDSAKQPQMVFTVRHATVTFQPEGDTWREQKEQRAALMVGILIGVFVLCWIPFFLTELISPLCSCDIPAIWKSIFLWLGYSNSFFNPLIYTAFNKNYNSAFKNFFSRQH
Chain of ATP-dependent molecular chaperone HSP82 (C4YTQ8 whole entry): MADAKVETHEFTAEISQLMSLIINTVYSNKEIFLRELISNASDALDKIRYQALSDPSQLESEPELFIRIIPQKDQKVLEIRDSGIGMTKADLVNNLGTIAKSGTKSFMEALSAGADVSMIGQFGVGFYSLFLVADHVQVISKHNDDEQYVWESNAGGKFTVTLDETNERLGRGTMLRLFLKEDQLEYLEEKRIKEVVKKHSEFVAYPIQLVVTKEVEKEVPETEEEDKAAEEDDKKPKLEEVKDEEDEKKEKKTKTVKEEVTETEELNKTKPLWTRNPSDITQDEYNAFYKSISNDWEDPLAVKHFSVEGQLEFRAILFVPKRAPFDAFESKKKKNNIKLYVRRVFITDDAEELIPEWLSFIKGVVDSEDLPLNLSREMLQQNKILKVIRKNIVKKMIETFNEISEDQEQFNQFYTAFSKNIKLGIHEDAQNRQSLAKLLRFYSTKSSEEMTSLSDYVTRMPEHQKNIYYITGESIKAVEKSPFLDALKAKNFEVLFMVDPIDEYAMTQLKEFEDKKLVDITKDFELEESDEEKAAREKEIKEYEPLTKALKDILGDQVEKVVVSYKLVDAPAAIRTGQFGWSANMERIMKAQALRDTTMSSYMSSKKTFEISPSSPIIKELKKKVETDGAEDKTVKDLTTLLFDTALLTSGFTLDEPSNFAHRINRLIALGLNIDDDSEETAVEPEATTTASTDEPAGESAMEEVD

Take `Cc1ccc(-n2cc(CNC(C)c3cnn(C)c3C)c(-c3ccc(F)cc3)n2)cc1` (centres undefined): the EC50 (commonly the concentration at which the effect is half-maximal) is above 0.1268 µM in assay [1]; 50 µM (inactive) in assay [2]; 13 µM (inactive) at Mu-type opioid receptor; 0.376 µM (active) in assay [3]; > 92.5 µM (inactive) in assay [4].

As to `O=c1c2ccccc2nc(/C=C/c2cccc(O)c2)n1Cc1ccccc1`, the IC50 at Hexokinase HKDC1 and at Hexokinase-1 was > 80 µM (inactive) each time.

Consider `COc1ccc2c(c1)/C(=C/c1cnc[nH]1)C(=O)N2` [SU-9516], for which the AC50 (as a rule, the midpoint of the concentration-response curve, whichever way the signal moves) in assay [5] is 0.995 µM (active); in the assay on HEK293, 34.2 µM (active). Besides, the concentration giving a half-maximal response (EC50) in [6] is 0.956 µM (active); in assay [7], > 91.2 µM (inactive); in the assay “cells [8]” it was > 350 µM (not active); in assay [10] it was > 160 µM (inactive); in “cells [11]”, > 350 µM (not active); in assay [13], > 91.2 µM (inactive). In addition, the results for the EC50 in assay [14] and in assay [15] were > 160 µM (inactive) and > 180 µM (inactive), respectively. For the same compound, the IC50 (usually the point on the concentration scale where inhibition reaches its midpoint) in [9] was 71.8 µM (inactive); in assay [12], 1.19 µM (active).

Values taken from ChEMBL document CHEMBL1201862, “PubChem BioAssay data set” (2004).
